The values that follow are results of earlier work, collected in patent US9114602B2, “Process for making lithographic printing plate” (FUJIFILM Corporation, priority 2011, dated 2015).

The conditions of the data set: at 20° C.
In the case of `CCC(C)CO` (centres unmarked) [2-methyl-1-butanol], the solubility in water is given as 3.0 g/100 mL.

Turning to `CC(C)CCO` [3-methyl-1-butanol], the solubility in water was 2.7 g/100 mL.

Turning to `CC(C)C(C)O` (centres unmarked) [3-methyl-2-butanol], the solubility in water is reported as 5.6 g/100 mL.

`CC(C)CC(C)O` (centres unmarked) [4-methyl-2-pentanol]: the solubility in water is given as 2.0 g/100 mL.

For the compound `CCCCCCOCCO` [Ethylene glycol mono-n-hexyl ether, reference compound], the solubility in water is given as 1.0 g/100 mL.

On to `CCCCCO` [Example 1-pentanol, 1-pentanol], for which the solubility in water is on record as 2.7 g/100 mL.

On to `CCCC(C)O` (centres unmarked) [Example 2-pentanol, 2-pentanol], for which the solubility in water was 4.5 g/100 mL.

On to `CCCC(C)=O` [Example 2-pentanone, 2-pentanone], for which the solubility in water was 4.0 g/100 mL.

As to `CCC(O)CC` [Example 3-pentanol, 3-pentanol], the solubility in water is 5.2 g/100 mL.

Turning to `OCc1ccccc1` [benzyl alcohol], the solubility in water was 4.0 g/100 mL.

With `CCC(=O)CC` [diethyl ketone], the solubility in water is listed as 1.7 g/100 mL.

On to `CCCCOCCOCCOC(C)=O` [diethylene glycol monobutyl ether acetate], for which the solubility in water is given as 6.5 g/100 mL.

For `OCCOc1ccccc1` [ethylene glycol monophenyl ether], the solubility in water is recorded as 2.7 g/100 mL.

Regarding `CC(=O)OC(C)C` [isopropyl acetate], the solubility in water is recorded as 4.3 g/100 mL.

On to `CC(C)(C)CO` [neopentyl alcohol], for which the solubility in water is 3.5 g/100 mL.

Take `CCCOC(C)=O` [propyl acetate]: the solubility in water is 1.6 g/100 mL.

As to `CCCCOCC(C)O` (centres unmarked) [propylene glycol mono-n-butyl ether], the solubility in water is listed as 4.4 g/100 mL.
